Values after ≈ are worked out from the molar mass of the structure shown.
Experiments:
A. baumannii [1] = assay: MIC, broth microdilution, CDC/FDA Antibiotic Resistance Isolate Bank (Example 7, Tables 9, 13, 14); type: cell-based, Acinetobacter baumannii
OXA-23 = OXA-23 (Acinetobacter baumannii, UniProt Q9L4P2); assay: Ki,app against β-lactamase (Example 1, Table 1); type: biochemical; settings: OXA-23, class D; 30 min preincubation; n.d.: too low inhibitor activity at 100 µmol/L; read-out: Ki app
OXA-23, sequence (Q9L4P2 18-273): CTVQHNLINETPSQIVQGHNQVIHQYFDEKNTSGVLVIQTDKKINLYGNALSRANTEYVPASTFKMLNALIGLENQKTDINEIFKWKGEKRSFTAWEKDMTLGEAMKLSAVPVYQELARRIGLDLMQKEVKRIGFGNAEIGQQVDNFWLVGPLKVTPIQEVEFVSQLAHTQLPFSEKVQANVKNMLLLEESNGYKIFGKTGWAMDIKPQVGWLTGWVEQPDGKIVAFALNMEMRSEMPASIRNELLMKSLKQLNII
Method: After stirring, the resultants were preincubated for 30 minutes at 37°C. The reporter substrate solution was incubated at 37°C for 15 minutes or more, dispensed at 100 µL/well, and measured for a change in absorbance by a microplate reader at 37°C. For each measured concentration of the positive control and the inhibitor, an initial rate (µmol/L/sec) was determined from a time to be analyzed and a change in product amount. […] Ki,app for each inhibitor concentration was calculated from the slope, the inhibitor concentration, an enzyme concentration, Km, and kcat using Expression 2. If the initial rate was determined at two or more concentrations for each inhibitor and a plurality of Ki,app could be obtained, an average value was used as the Ki,app for the inhibitor. t−tc = Km /Vmax x ([Inhibitor]/Ki,app)x Ln[S]0 /[S] [formula] Ki,app = [Inhibitor]x Km /(kcatx[Enzyme])x 1/slope [formula]
The experiment was performed in duplicate.

A. baumannii [2] = assay: MIC, broth microdilution, 6 strains (Example 6, Table 7); type: cell-based

## C[C@H]1COc2c(N3CCN(C)CC3)c(F)cc3c(=O)c(C(=O)O)cn1c23 [Levotloxacin]
A. baumannii [1]; A. baumannii KUB No. 5567, AR Bank #70, OXA-58, OXA-100
  MIC: 4 µg/mL (≈ 11.1 µM)
A. baumannii [1]; A. baumannii KUB No. 5575, AR Bank #78, OXA-71
  MIC: 32 µg/mL (≈ 88.6 µM)
A. baumannii [1]; A. baumannii KUB No. 5580, AR Bank #83, OXA-23, OXA-69, NDM-1
  MIC: 8 µg/mL (≈ 22.1 µM)
A. baumannii [1]; A. baumannii KUB No. 5585, AR Bank #88, OXA-64, NDM-1
  MIC: 8 µg/mL (≈ 22.1 µM)
A. baumannii [1]; A. baumannii KUB No. 5598, AR Bank #101, OXA-24, OXA-65
  MIC: 16 µg/mL (≈ 44.3 µM)
A. baumannii [1]; A. baumannii KUB No. 5599, AR Bank #102, OXA-66
  MIC: 8 µg/mL (≈ 22.1 µM)
A. baumannii [1]; A. baumannii KUB No. 5706, AR Bank #273, OXA-23, OXA-66
  MIC: 64 µg/mL (≈ 177 µM)
A. baumannii [1]; A. baumannii KUB No. 5707, AR Bank #274, OXA-66, OXA-72
  MIC: 16 µg/mL (≈ 44.3 µM)
A. baumannii [1]; A. baumannii KUB No. 5708, AR Bank #275, OXA-23, OXA-66
  MIC: 8 µg/mL (≈ 22.1 µM)
A. baumannii [1]; A. baumannii KUB No. 5709, AR Bank #276, no carbapenemase genes (-)
  MIC: 16 µg/mL (≈ 44.3 µM)
A. baumannii [1]; A. baumannii KUB No. 5710, AR Bank #277, OXA-24, OXA-65
  MIC: 16 µg/mL (≈ 44.3 µM)
A. baumannii [1]; A. baumannii KUB No. 5711, AR Bank #278, OXA-23, OXA-66
  MIC: 8 µg/mL (≈ 22.1 µM)
A. baumannii [1]; A. baumannii KUB No. 5712, AR Bank #279, OXA-23, OXA-66
  MIC: 8 µg/mL (≈ 22.1 µM)
A. baumannii [1]; A. baumannii KUB No. 5713, AR Bank #280, OXA-66
  MIC: 16 µg/mL (≈ 44.3 µM)
A. baumannii [1]; A. baumannii KUB No. 5714, AR Bank #281, OXA-82
  MIC: 8 µg/mL (≈ 22.1 µM)
A. baumannii [1]; A. baumannii KUB No. 5715, AR Bank #282, OXA-23, OXA-66
  MIC: 8 µg/mL (≈ 22.1 µM)
A. baumannii [1]; A. baumannii KUB No. 5716, AR Bank #283, OXA-23, OXA-66
  MIC: 16 µg/mL (≈ 44.3 µM)
A. baumannii [1]; A. baumannii KUB No. 5717, AR Bank #284, OXA-24, OXA-65
  MIC: 16 µg/mL (≈ 44.3 µM)
A. baumannii [1]; A. baumannii KUB No. 5718, AR Bank #285, OXA-24, OXA-65
  MIC: 64 µg/mL (≈ 177 µM)

## O=C(NC1CCNCC1)[C@@H]1CC[C@@H]2CN1C(=O)N2OS(=O)(=O)O [Relebactam, relebactam]
OXA-23
  Ki: 5.64 ± 0.522 µM

## Colistin sulfate
A. baumannii [2]; A. baumannii strain with AMR gene ADC-25, OXA-23, OXA-66, TEM-ID, Carbapenem-resistant
  MIC: 1 µg/mL
A. baumannii [2]; A. baumannii strain with AMR gene ADC-25, OXA-66, TEM-1D, Carbapenem-susceptible
  MIC: 2 µg/mL
A. baumannii [2]; A. baumannii strain with AMR gene ADC-25, XA-23, OXA-66, strA, strB, sul2, TEM-1D, Carbapenem-resistant
  MIC: 1 µg/mL
A. baumannii [2]; A. baumannii strain with AMR gene NDM-1, OXA-64, Carbapenem-resistant
  MIC: 1 µg/mL
A. baumannii [2]; A. baumannii strain with AMR gene OXA-23, OXA-69, TEM-1D, Carbapenem-resistant
  MIC: 1 µg/mL
A. baumannii [2]; A. baumannii strain with AMR gene OXA-24, OXA-65, Carbapenem-resistant
  MIC: 1 µg/mL

— patent EP4635500A1, “THERAPEUTIC AGENT FOR BACTERIAL INFECTION” (Sumitomo Pharma Co., Ltd., priority 2022, dated 2024)
